Test results: patent EP0536208B1, “1,2-DIHYDRO-3H-DIBENZISOQUINOLINE-1,3-DIONE ANTICANCER AGENTS” (RESEARCH CORPORATION TECHNOLOGIES, INC., priority 1990, dated 1992)

Assays:
[1] = test system: SW80p105; experiment: Activity against human colon tumor cells (MTT assay, 3 day drug exposure); assay type: cell-based; settings: cells plated 24 hr. prior to drug addition, read-out: Concentration for 50% inhibition of colony formation for human colon tumors
Experimental: (§1) For example, the compounds of the present invention were evaluated for cytotoxic activities in cloned human colon carcinomas. The clonogenic assays were conducted in accordance with the procedure described hereinbelow: 1) Colony Forming Assays in Soft Agar: Fresh human or murine tumors are disaggregated into single cell suspensions using mechanical, hypoosmotic and/or enzymatic (trypsin) methods. The single cells (about 5 X 10^4-10^5) are plated in 35 mm plastic petri dishes onto a 1 ml "feeder layer" of 0.3% agar dissolved in growth medium containing 5-10% vol/vol of heat-inactivated fetal bovine serum, molten 0.3% agar and the antibiotics penicillin (100 u/mL) and streptomycin (100 ug/mL). Drug exposures can be performed for one hour or continuously (drugs added to final plating medium). Tumor cell colonies > 60 uM in size are counted by automated image analysis after 10-20 days of incubation in a humidified, 5-10% CO2-gassed environment maintained at 37°C. Inhibition of colony formation is calculated based on comparisons to control (untreated) plates wherein the growth of hundreds of colonies/plate is typical. (Salmon SE, et al., N Engl J Med 298(24):1321-1327, 1978).
(§2) Compounds of the present invention were tested for their in vitro activity in tumor cells sensitive and resistant to standard anti-cancer agents. The tumor cell lines used in this protocol are 8226 human Myeloma^1; 8226/Dox-40^2, L-1210/Murine Leukemia, multidrug resistant L-210/^3, 2780 Human Ovarian Cancer and 2780/AD^4. Each of these resistant cell lines is known as a multidrug resistant or "MDR" cell line. These cell lines produce a 170,00 molecular weight membrane protein termed the P-glycoprotein which acts as an active drug efflux pump. Thus, once a cell produces the P-glycoprotein, it has the capability of pumping out of the cell a large variety of unrelated natural products. […] The protocol for measuring the effectiveness of compounds of the present invention is as follows: 2) In Vitro Tumor Cell Viability Assays Using MTT-Dye: Tumors are processed into a single cell suspension as described above. The cells are plated at a concentration of 3-5 X 10^4/1 mL well into plastic 96-well plates. […] Afterwards the medium containing the drug is removed, the cells are "washed" by centrifugation in fresh medium or phosphate-buffered saline (pH 7.4). A tetrazolium dye is then added (3,4,5-dimethylthiazol-2-yl)-2,5-diphenyl tetrazolium bromide (MTT). This dye forms a colored formazan product upon activation by mitochondrial reductases in viable cells. Typically, the formazan product is solubilized in acid-propanol or DMSO. The intensity of the color is proportional to viable cell numbers and this is quantitated by spectrophotometric absorbance ([…]) on a micro ELISA plate reader. Test results are calibrated in % control absorbance from untreated tumor cells (Mossman T: J Immunol Meth 65:55-63, 1983). Using the above procedure, Compound 1 was tested for its cytotoxic activity with respect to various tumor cell lines.

[2] = test system: HT29p30; experiment: as above; assay type: cell-based; settings: cells plated 24 hr. prior to drug addition, read-out: Concentration for 50% inhibition of colony formation for human colon tumors
Experimental: as §1, §2

[3] = test system: P-388/ADR (adriamycin-Resis-tant); settings: mice; cited from earlier work
[4] = test system: P-388 lymphocytic leukemia; settings: mice; cited from earlier work
[5] = test system: 16-C Mammary Adenocarcinoma; settings: cited from earlier work
[6] = test system: M5-76 Sarcoma; settings: cited from earlier work
[7] = test system: 205p14; experiment: Activity against human colon tumor cells (MTT assay, 3 day drug exposure); assay type: cell-based; settings: cells plated 24 hr. prior to drug addition, read-out: Concentration for 50% inhibition of colony formation for human colon tumors
Experimental: as §1
(§3) Compounds of the present invention were tested for their in vitro activity in tumor cells sensitive and resistant to standard anti-cancer agents. The tumor cell lines used in this protocol are 8226 human Myeloma^1; 8226/Dox-40^2, L-1210/Murine Leukemia, multidrug resistant L-210/^3, 2780 Human Ovarian Cancer and 2780/AD^4. Each of these resistant cell lines is known as a multidrug resistant or "MDR" cell line. These cell lines produce a 170,00 molecular weight membrane protein termed the P-glycoprotein which acts as an active drug efflux pump. Thus, once a cell produces the P-glycoprotein, it has the capability of pumping out of the cell a large variety of unrelated natural products. […] The protocol for measuring the effectiveness of compounds of the present invention is as follows: 2) In Vitro Tumor Cell Viability Assays Using MTT-Dye: Tumors are processed into a single cell suspension as described above. The cells are plated at a concentration of 3-5 X 10^4/1 mL well into plastic 96-well plates. Growth medium containing 5-10% (vol/vol) heat-inactivated fetal bovine serum and penicillin/streptomycin (as above) is added prior to incubation at 37°C for six days. Afterwards the medium containing the drug is removed, the cells are "washed" by centrifugation in fresh medium or phosphate-buffered saline (pH 7.4). A tetrazolium dye is then added (3,4,5-dimethylthiazol-2-yl)-2,5-diphenyl tetrazolium bromide (MTT). This dye forms a colored formazan product upon activation by mitochondrial reductases in viable cells. Typically, the formazan product is solubilized in acid-propanol or DMSO. The intensity of the color is proportional to viable cell numbers and this is quantitated by spectrophotometric absorbance ([…]) on a micro ELISA plate reader. Test results are calibrated in % control absorbance from untreated tumor cells (Mossman T: J Immunol Meth 65:55-63, 1983). Using the above procedure, Compound 1 was tested for its cytotoxic activity with respect to various tumor cell lines.

[8] = test system: LOVOp32; experiment: as above; assay type: cell-based; settings: cells plated 24 hr. prior to drug addition, read-out: Concentration for 50% inhibition of colony formation for human colon tumors
Experimental: as §1, §3

[9] = test system: Colon-38 Adenocarcinoma; settings: mice; cited from earlier work
[10] = test system: FRESH HUMAN TUMORS; experiment: Colony forming assay in fresh human tumors, all tumor types; assay type: cell-based; settings: Total of all tumor types; .001 ug/mL continuously; tumor cell survival of less than 50% of control
Experimental: as §1, with “The” for “For example, the compounds of the present invention were evaluated for cytotoxic activities in cloned human colon carcinomas. The”, “(Salmon SE, et al., N Engl J Med 298(24):1321-1327, 1978).” left out
Fresh human tumor specimens disaggregated to single cell suspensions and exposed to .001 ug/mL of drug continuously. Percent survival represents the fraction of tumor colonies (> 60 uM size) obtained after drug treatment compared to untreated cells of the same tumor. […] Each tumor sample is analyzed in three different petri dishes (i.e., n = 3 for each sample).

Compound	IC50 [1]	IC50 [2]	Comparative Activity From The Literature, ILS (Percentage Increased Lifespan) [3]	Comparative Activity From The Literature, ILS (Percentage Increased Lifespan) [4]	Comparative Activity From The Literature, Days of Tumor Growth Delay [5]	Comparative Activity From The Literature, Days of Tumor Growth Delay [6]	IC50 [7]	IC50 [8]	Comparative Activity From The Literature, Days of Tumor Growth Delay [9]	Overall Response [10]
CN(C)CCN1C(=O)c2cccc3cc(N)cc(c23)C1=O [Amonafide, amino-N-dimethylaminoethylbenz[de]isoquinoline]	570 nM	960 nM	35 ILS	99 ILS	7 days	7 days	160 nM	600 nM	<7 days	
COc1cccc2c1C(=O)c1c(O)c3c(c(O)c1C2=O)C[C@@](O)(C(=O)CO)C[C@@H]3O[C@H]1C[C@H](N)[C@H](O)[C@H](C)O1 [Doxorubicin]			18 ILS	164 ILS					10 days	20%
